What is called IC50 is the concentration that inhibits the measured activity by half.

Assay [1] deals with T1, CtHtrA (Chlamydia trachomatis serovar D, UniProt P18584).
T1 construct: made in house; host or cells: E. coli BL21(DE3), pET22b
Description: CtHtrA protease inhibition assay. In kind it is biochemical. The settings on record: for Relative Potency against CtHtrA: [IC50 of control]/[IC50 test compound]; for IC50: IC50 against CtHtrA; for Relative Selectivity: (relative CtHtrA potency)/(relative HLE potency). As for the experimental part:
The inhibitory activity of compounds 2a–g against CtHtrA was evaluated. […] As these compounds are reportedly covalent inhibitors of serine proteases, a true IC50 is unable to be calculated. Instead, the residual activity of the protease is monitored over time in response to a range of compound concentrations, and an IC50 value is interpolated from a dose–response curve (see Figures S2–S4 and Tables S1 and S2). This IC50 value is then compared to a positive control (JO146 was used for 2a–g, and 2g was used for 6a–h), giving the ‘relative potency’. This is the established method for assessing CtHtrA inhibitory potency. […] This effect may be due to depth restrictions within the S1 subpocket, as kinetic studies on the rates of protease inhibition in HLE were reduced by larger C-3 alkoxy substituents. Chain branching (iso-propyl and sec-butyl substituents) increased the activity, resulting in a 1.4-fold increase for 2e over 2b and a 2.8-fold improvement for 2g over 2c.
CtHtrA was expressed using an procedure adapted from the literature. Recombinant E. coli BL21(DE3) pET22b was grown in LB media containing 100 ug/mL ampicillin to an OD600 of 0.5-0.6 in 5 × 400 mL batches at 37 °C. Isopropyl β-D-1-thioglactopyranoside (1 M, 400 µL, 1 mM final concentration) was added to each flask and incubated at 30 °C with shaking at 150 rpm for an additional 2.5 h. The culture was centrifuged at 4000× g for 15 min at 4 °C, and the cell pellet was harvested and resuspended in lysis buffer (50 mM phosphate, 10 mM imidazole, 500 mM NaCl, 0.1% Triton X-100, 10% glycerol). Lysozyme was added to the suspended cells and was sonicated in 15 cycles of 15 s, with one minute between cycles while maintaining 4 °C, and then centrifuged at 8000× g for 20 min to remove any debris, retaining the supernatant for protein purification.
TALON® metal affinity resin (Takara cat no. 635652, 5 mL) was added to each lysate tube and washed sequentially with lysis buffer (2 × 45 mL) and stringency buffer (4 × 45 mL) and then eluted with elution buffer (2 × 5 mL), allowing incubations at 4 °C for 20 min per wash, and centrifuging at 2500× g and 4 °C between washes to pellet the resin. The eluates were dialyzed in Tris buffer (pH 7.0, 50 mM, 4 L) with magnesium chloride (20 mM) at 4 °C five times over 24 h, with a minimum of three hours per dialysis change. Protein expression and isolation were confirmed with SDS-PAGE Coomassie stained gel, which was examined for the band at the correct size, and a BCA assay to confirm purified protein concentration prior to use.
CtHtrA was added to 25 wells in a black 96-well plate (40–80 µL, 10 µL increments), to which Tris-HCl buffer (50 mM, pH 7.0 with 20 mM MgCl2) was added to bring the total volume to 90 µL for 10 wells and 85 µL for the remaining 15. JO146 (10 µM, 5 µL) was added to 5 wells and JO146 (1 µM, 5 µL) was added to another 5 wells, with DMSO (5 µL) being added to the remaining 5 as a control. The plate was incubated at 37 °C for 10 min before substrate (MCA-ENLHLPLPIIFK-DNP, 10 µL, 1 mg/mL, 50% isopropanol in buffer) was added and analyzed in a TECAN Infinite Pro M200 plate reader with an excitation wavelength of 340 nm and fluorescence measured at 405 nm with four reads per well at 60 s intervals. A minimum volume of CtHtrA granting a fluorescence change of 300 min^−1 was used for subsequent assay.
The determined appropriate volume of CtHtrA in buffer was added to a 96-well non-transparent black plate and diluted to 85 µL with buffer solution. Drug or control (5 µL) at a maximum of 20% DMSO/80% buffer was added to the appropriate well with DMSO controls, and the plate was incubated for 10 min to allow activation by the protein. MCA-ENLHLPLPIIFK-DNP (Mimotopes, Australia, 1 mg/mL, 10 µL) was added and immediately monitored on a TECAN M200 Infinite plate reader at 37 °C every 60 s for 30 min, using the same wavelengths as for the activity evaluation. […]

The test system of assay [2] is C. trachomatis. Put plainly: Chlamydia trachomatis growth inhibition assay in HEp-2 host cells. In kind it is cell-based. Particulars: 62.5 µM; for anti-chlamydial activity against C. trachomatis: 30 h post infection, HEp-2 host cells. As for the experimental part: The workflow for the evaluation of chlamydial growth inhibition is described in the supplementary information (Figure S6). Briefly, HEp-2 cells were seeded in a 96-well plate and grown for 24 h; they were then infected with a fixed quantity of C. trachomatis. The infection was propagated for 4 h, and then a mixture of test compound and cycloheximide was added and the plate was incubated for a further 26 h (30 h post infection). The cells were fixed with methanol and then stained with fluorescent antibodies to visualize chlamydial inclusions, and the growth was measured using inclusion counts relative to vehicle controls.
HEp-2 cells were grown until confluent in a T-75 flask with DMEM (containing 10% FCS, gentamycin (0.05 mg/mL), streptomycin (0.1 mg/mL) and glutamine (Sigma-Aldrich Cat No. G7513, 4 mM); they were then harvested with trypsin, and the cell density was determined with a haemocytometer. Cells were diluted to 1 × 10^5 cells/mL, and 200 µL was dispensed to each well in a 96-well plate and then incubated for 24 h at 5% CO2 at 37 °C.
The supernatant was removed, and 100 µL of the respective chlamydia species in media (100,000 IFU/mL) was added, giving an MOI of 0.5. The plate was sealed and centrifuged at 500× g/28 °C for 30 min and then incubated for a further 3.5 h at 37 °C with 5% CO2. The supernatant was removed, and 100 µL of cycloheximide in DMEM (1 µg/mL) was added in addition to 100 µL of drug stock solution to each respective well with DMSO and media negative controls and also azithromycin positive control. The plate was incubated for a further 26 h.
The supernatant was removed, and wells were washed with PBS (2 × 150 µL) and then fixed in methanol for eight minutes. The methanol was removed and washed with additional PBS (2 × 150 µL) and stored at 4 °C with 100 µL PBS per well and then stained and analyzed using fluorescence microscopy, which is outlined below.
Cells in fixed plates were permeabilized with 0.5% Triton X-100 in PBS for 15 min and then blocked with 1% BSA in PBS for 45 min. Anti-HtrA polyclonal antibody (sera) (1:600) (in-house), anti-mouse tubulin (Sigma-Aldrich Cat no. T-5168, 1:3000) and DAPI (125 ng/mL) in PBS were added to each well (70 µL) and then gently shaken at room temperature while shielding it from light for 45 min. The primary antibodies were removed, and the wells were washed with PBS (4 × 150 µL). Secondary antibodies (goat anti-rabbit Alexafluor 488, Thermo Fisher Cat No. A-11008 and goat anti-mouse Alexafluor 568 (Thermo Fisher Cat No. A-11004)) in PBS (70 µL, 1:600 respectively) were added and the wells were gently shaken at room temperature while shielding them from light for 45 min. The antibodies were removed, and the wells were washed with PBS (5 × 150 µL); cells were then stored with PBS (100 µL per well) at 4 °C pending analysis.
Plates were analyzed on an INcell Analyzer 2200 (Cytiva Life Sciences, Marlborough, MA, USA) using both laser autofocus (10%) and software autofocus modes, with ten random images per well covering a minimum of 80% of the well at 10x magnification. Non-morphologically affected inclusions were counted using a macro in ImageJ (v1.54f), and MIC was defined as being one two-fold dilution more concentrated than MICTP (where MICTP is defined as the lowest concentration to produce ≥90% morphologically abnormal inclusions) relative to solvent controls.

Assay [3] concerns the target T2, Human Leukocyte Elastase (HLE) (Homo sapiens, UniProt P08246).
T2 construct: purchased Athens Research and Technology 16-15-051200
T2 sequence (P08246 30-247 limits assumed): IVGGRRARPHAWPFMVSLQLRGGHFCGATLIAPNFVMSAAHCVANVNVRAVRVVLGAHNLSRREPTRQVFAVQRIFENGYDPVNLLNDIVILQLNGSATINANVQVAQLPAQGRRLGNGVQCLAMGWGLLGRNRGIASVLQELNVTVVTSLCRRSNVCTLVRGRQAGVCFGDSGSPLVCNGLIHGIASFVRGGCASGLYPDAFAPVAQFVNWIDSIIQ
Set-up: method as in PMID 3910097. The settings on record: cited from earlier work.

For assay [4], the target named is T2, Human Leukocyte Elastase (HLE). Description: HLE protease inhibition assay. The class given is biochemical. Particulars: for IC50: Table S1, variable slope four parameter fit, read-out: IC50 against HLE; for Relative Potency against HLE: [IC50 of JO146]/[IC50 test compound]. As for the experimental part: Elastase was purchased from Athens Research and Technology (Cat No. 16-15-051200). Elastase (100 µg) was dissolved in Tris buffer (100 mM Tris, 20 mM CaCl2, pH 8.1, 3.14 mL), giving a concentration of 1.117 µM, and 25 µL was added to each well containing the respective inhibitor. The plate was incubated at 37 °C for 15 min.
N-Suc-AAA-pNA (Sigma Aldrich, Bayswater, Australia, S4760, 100 µL, 1 mg/mL, […]) was added to each well, and the absorbance was monitored every six minutes at 405 nm. The rate of change of absorbance was used as a comparison to controls to determine the % inhibition of protein in Microsoft Excel^TM (v2402), and these values were exported to GraphPad Prism (v8.0.1) for IC50 calculation.

Where [5] appears, read: Table S2, Batch 1, control JO146.
The mark [6] stands for this setting: Table S2, Batch 2, control JO146.

T1 sequence (P18584 17-497): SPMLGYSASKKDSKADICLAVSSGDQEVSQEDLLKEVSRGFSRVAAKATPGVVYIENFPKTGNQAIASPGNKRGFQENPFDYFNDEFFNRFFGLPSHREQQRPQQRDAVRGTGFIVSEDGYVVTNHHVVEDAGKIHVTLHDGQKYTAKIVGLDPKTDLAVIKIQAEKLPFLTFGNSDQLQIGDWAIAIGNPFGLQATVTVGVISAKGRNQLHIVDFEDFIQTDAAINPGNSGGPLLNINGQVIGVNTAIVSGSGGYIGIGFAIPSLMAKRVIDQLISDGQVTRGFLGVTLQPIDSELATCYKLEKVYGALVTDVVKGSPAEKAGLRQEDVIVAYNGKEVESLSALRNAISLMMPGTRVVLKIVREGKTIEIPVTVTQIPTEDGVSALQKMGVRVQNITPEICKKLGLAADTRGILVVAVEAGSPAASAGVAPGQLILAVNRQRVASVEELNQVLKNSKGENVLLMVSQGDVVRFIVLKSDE

Regarding `CCC(C)Oc1oc(=O)c2cc(Br)ccc2c1Cl` (racemic) [Compound 6f, (±)-7-Bromo-3-sec-butoxy-4-chloro-isocoumarin], the “Relative Potency against CtHtrA” value in assay [1] (control 2g) came out at 0.057. Moreover, in assay [2], the “anti-chlamydial activity against C. trachomatis” value is “abolished observable activity”.
In assay [1] (Table S2, Batch 5, control 2g), `CCC(C)Oc1oc(=O)c2cc(Cl)ccc2c1Cl` (racemic) [Compound 6g, (±)-3-sec-Butoxy-4,7-dichloro-isocoumarin] registered an IC50 of 71.8 µM. For the same compound, in assay [1] (control 2g), the “Relative Potency against CtHtrA” value is 0.390. Besides, the “anti-chlamydial activity against C. trachomatis” value in assay [2] is on record as “did not significantly affect the efficacy of 2g”. In assay [2] (relative to solvent controls), the “statistical significance of anti-chlamydial activity” value is on record as “statistically significant anti-chlamydial activity”.
Take `O=c1oc(Cl)c(Cl)c2ccccc12` [3,4-dichloroisocoumarin]: the “molecular turnover against HLE” value in assay [3] is recorded as 3.1.
As to `CCOc1oc(=O)c2ccccc2c1Cl` [Compound 2b, 3-Ethoxy-4-chloroisocoumarin], the “Relative Selectivity” value in assay [1] came out at 56.4. The same compound registered an IC50 in assay [1] (setting [5]) of 19.1 µM. The “Relative Potency against CtHtrA” value in assay [1] (control JO146) is recorded as 3.73. For the same compound, in assay [4], the IC50 stood at 12.3 µM and the “Relative Potency against HLE” value came out at 0.0664.
On the same counts, the results for `CCCOc1oc(=O)c2ccccc2c1Cl` [Compound 2c, 3-Propoxy-4-chloroisocoumarin] are 6.92, 32 µM, 2.23, 2.53 µM and 0.323.
For `CCCCOc1oc(=O)c2ccccc2c1Cl` [Compound 2d, 3-Butoxy-4-chloroisocoumarin], in assay [1], the “Relative Selectivity” value came to 5.08. Besides, it took 45.5 µM to reach half-maximal inhibition in assay [1] (setting [5]) (IC50). The “Relative Potency against CtHtrA” value in assay [1] (control JO146) was 1.57. For the same compound, in assay [4], the IC50 amounted to 2.64 µM and the “Relative Potency against HLE” value came out at 0.310.
Take `CC(C)Oc1oc(=O)c2ccccc2c1Cl` [Compound 2e, 3-iso-Propoxy-4-chloroisocoumarin]: in assay [1] (2e over 2b), the “fold increase in CtHtrA inhibitory activity” value amounted to 1.4 fold. Further, the “Relative Selectivity” value in assay [1] was determined as 12.7. In assay [1] (setting [6]), this compound had an IC50 of 11.3 µM. Besides, in assay [1] (control JO146), the “Relative Potency against CtHtrA” value worked out at 5.32. Moreover, in assay [4], the concentration for half-maximal inhibition (IC50) came to 1.95 µM and the “Relative Potency against HLE” value is reported as 0.419.
Regarding `CC(C)COc1oc(=O)c2ccccc2c1Cl` [Compound 2f, 3-iso-Butoxy-4-chloroisocoumarin], the “Relative Selectivity” value in assay [1] is on record as 4.08. Besides, the IC50 in assay [1] (setting [6]) turned out to be 40 µM. Further, the “Relative Potency against CtHtrA” value in assay [1] (control JO146) amounted to 1.50. Moreover, in assay [4], the half-maximal inhibitory concentration (IC50) is 2.22 µM and the “Relative Potency against HLE” value is 0.368.
As for `O=c1oc(Cl)cc2ccccc12` [Compound 3-choro-], the “molecular turnover against HLE” value in assay [3] is given as 15.

The values are drawn from PMC11013143, “4-Chloroisocoumarins as Chlamydial Protease Inhibitors and Anti-Chlamydial Agents” (Molecules, 2024).
